From patent US9409952B2, “Peptide-compound cyclization method” (Chugai Seiyaku Kabushiki Kaisha, priority 2011, dated 2016)
Where two headings read alike, the source gives them in different places. Starred links: 1 amine or outer side, 2 acyl side, 3 side chain; linkers in the order of their positions; H or OH if unused. Positions of bridges follow the written chain, without caps; N, C: chain ends. Non-standard residues stand in square brackets, D forms with d. Residues, ends and D or L forms follow the SMILES beside them. *: point of attachment. NEtPhe = CCN[C@@H](Cc1ccccc1)C(=O)O; NMeF = CN[C@@H](Cc1ccccc1)C(=O)O; NMeGABA = CN(CCCC(=O)[*:2])[*:1]; NMeI = CC[C@H](C)[C@H](NC)C(=O)O; NMeβAla = CN(CCC(=O)[*:2])[*:1]; NMeL = CN[C@@H](CC(C)C)C(=O)O; NMeV = CN[C@H](C(=O)O)C(C)C; NMeA = CN[C@@H](C)C(=O)O; Piperidide = C1CCN(*)CC1; dNMeA = CN[C@H](C)C(=O)O; Aib = CC(C)(N)C(=O)O; NPrGly = CCCNCC(=O)O; Sar = CNCC(=O)O; tBu = CC(C)(C)*

Key:
[1] = PAMPA (parallel artificial membrane permeability assay); format: in vitro ADME; conditions: PAMPA
Outline: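 Artificial membrane was 10% (w/v) egg lecithin plus 0.5% (w/v) cholesterol in dodecane on a PVDF filter. A 10 mM DMSO stock was added at 0.5% (v/v) to donor buffer (50 mM MOPSO, pH 6.5, 5.0% glycocholic acid). After 18 h at 37 °C, LC/MS or LC/UV gave donor and acceptor levels for Pe.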

[2] = Metabolic stability in human hepatic microsome; format: in vitro ADME; conditions: microsomes
[3] = membrane permeation rate (Pe), 50 mM MOPSO buffer pH 6.5 with 5.0% glycocholic acid, 37° C., 18 hours, read-out: iPAMPA Pe
[4] = pH 7.4, human hepatic microsome, NADPH(+), read-out: CL NADPH(+)

Structure (SMILES)	Papp at 18 hours, 50 µM [1, 3] [×10⁻⁶ cm/s]	microsomal CLint at 1 uM [2, 4] [µL/min/mg]	Papp at 18 hours, 50 µM ([1]; pH 6.5) [×10⁻⁶ cm/s]	microsomal CLint at 1 uM ([2]; human, pH 7.4, CL NADPH(+)) [µL/min/mg]
CC(C)C[C@H]1C(=O)N[C@H](C(=O)N2CCCCC2)CC(=O)N(C)CC(=O)N[C@@H]([C@@H](C)O)C(=O)N(C)[C@@H](C)C(=O)N[C@@H](COC(C)(C)C)C(=O)N(C)[C@@H](Cc2ccccc2)C(=O)N1C [DP-531] ([Sar]T[NMeA]S(tBu)[NMeF][NMeL]D-Piperidide; lactam N-7)	5.8	42		
CC(C)C[C@H]1C(=O)N[C@H](C(=O)N2CCCCC2)CC(=O)N(C)CCC(=O)N[C@@H]([C@@H](C)O)C(=O)N(C)[C@@H](C)C(=O)N[C@@H](COC(C)(C)C)C(=O)N(C)[C@@H](Cc2ccccc2)C(=O)N1C [DP-532] ([NMeβAla]T[NMeA]S(tBu)[NMeF][NMeL]D-Piperidide; lactam N-7)	20	105		
CC(C)C[C@H]1C(=O)N[C@H](C(=O)N2CCCCC2)CC(=O)N(C)[C@@H](C)C(=O)N(C)[C@@H](Cc2ccccc2)C(=O)N(C)[C@@H](CC(C)C)C(=O)N[C@@H]([C@@H](C)O)C(=O)N(C)CC(=O)N1C [DP-533] ([NMeA][NMeF][NMeL]T[Sar][NMeL]D-Piperidide; lactam N-7)	10	86		
CC(C)C[C@H]1C(=O)N(C)CC(=O)N(C)[C@@H](Cc2ccccc2)C(=O)N[C@@H](COC(C)(C)C)C(=O)N[C@H](C(=O)N2CCCCC2)CC(=O)N(C)CCCC(=O)N[C@@H]([C@@H](C)O)C(=O)N1C [DP-534] ([NMeGABA]T[NMeL][Sar][NMeF]S(tBu)D-Piperidide; lactam N-7)	6.3	55		
CC(C)C[C@H]1C(=O)N[C@H](C(=O)N2CCCCC2)CC(=O)N(C)CCCC(=O)N(C)[C@@H](Cc2ccccc2)C(=O)N[C@@H]([C@@H](C)O)C(=O)N(C)CC(=O)N[C@@H](COC(C)(C)C)C(=O)N1C [DP-535] ([NMeGABA][NMeF]T[Sar]S(tBu)[NMeL]D-Piperidide; lactam N-7)	21	129		
CC(C)C[C@H]1C(=O)N[C@H](C(=O)N2CCCCC2)CC(=O)N(C)[C@H](C)C(=O)N(C)[C@@H](CC(C)C)C(=O)N[C@@H]([C@@H](C)O)C(=O)N(C)CC(=O)N[C@@H](COC(C)(C)C)C(=O)N1C [DP-536] ([dNMeA][NMeL]T[Sar]S(tBu)[NMeL]D-Piperidide; lactam N-7)	9.9	113		
CC(C)C[C@H]1C(=O)N[C@H](C(=O)N2CCCCC2)CC(=O)N[C@H](C)C(=O)N(C)[C@@H](Cc2ccccc2)C(=O)N(C)[C@@H](CC(C)C)C(=O)N[C@@H]([C@@H](C)O)C(=O)N(C)CC(=O)N1C [DP-537] ([dA][NMeF][NMeL]T[Sar][NMeL]D-Piperidide; lactam N-7)	10	78		
CC(C)C[C@H]1C(=O)N[C@@H]([C@@H](C)O)C(=O)N(C)[C@@H](C)C(=O)N[C@H](C(=O)N2CCCCC2)CC(=O)N[C@H](C)C(=O)N(C)[C@@H](C)C(=O)N(C)[C@@H](Cc2ccccc2)C(=O)N1C [DP-538] ([dA][NMeA][NMeF][NMeL]T[NMeA]D-Piperidide; lactam N-7)	5.5	37		
CC(C)C[C@@H]1NC(=O)[C@H](Cc2ccccc2)N(C)C(=O)[C@H]([C@@H](C)O)NC(=O)[C@H](Cc2ccccc2)N(C)C(=O)[C@H](C)N(C)C(=O)[C@H](C)NC(=O)C[C@@H](C(=O)N2CCCCC2)NC1=O [DP-539] (A[NMeA][NMeF]T[NMeF]LD-Piperidide; lactam N-7)	20	260		
CCCN1CC(=O)N(C)[C@@H](Cc2ccccc2)C(=O)N(C)[C@@H](Cc2ccccc2)C(=O)N(C)[C@@H](CC(C)C)C(=O)N2CCC[C@H]2C(=O)N(C)[C@@H](CC(C)C)C(=O)N[C@@H](C)C(=O)N(C)[C@@H](C(C)C)C(=O)N[C@H](C(=O)N2CCCCC2)CC(=O)N(C)[C@@H](C)C(=O)N[C@@H]([C@@H](C)O)C1=O [DP-541] ([NMeA]T[NPrGly][NMeF][NMeF][NMeL]P[NMeL]A[NMeV]D-Piperidide; lactam N-11)			23	22
CCN1C(=O)CN(C)C(=O)[C@H]([C@@H](C)O)NC(=O)[C@H](C)N(C)C(=O)C[C@@H](C(=O)N2CCCCC2)NC(=O)[C@H](C(C)C)N(C)C(=O)[C@H](C)NC(=O)[C@H](CC(C)C)N(C)C(=O)[C@@H]2CCCN2C(=O)[C@H](CC(C)C)N(C)C(=O)[C@H](Cc2ccccc2)N(C)C(=O)[C@@H]1Cc1ccccc1 [DP-542] ([NMeA]T[Sar][NEtPhe][NMeF][NMeL]P[NMeL]A[NMeV]D-Piperidide; lactam N-11)			22	21
CCCN1CC(=O)N(C)[C@@H](CC(C)C)C(=O)N[C@@H]([C@@H](C)O)C(=O)N(C)[C@@H](Cc2ccccc2)C(=O)N(C)[C@@H](CC(C)C)C(=O)N(C)[C@@H]([C@@H](C)CC)C(=O)N(C)[C@@H](C)C(=O)N[C@H](C(=O)N2CCCCC2)CC(=O)N(C)CC(=O)N[C@@H](COC(C)(C)C)C1=O [DP-543] ([Sar]S(tBu)[NPrGly][NMeL]T[NMeF][NMeL][NMeI][NMeA]D-Piperidide; lactam N-10)	28	23		
CCCN1CC(=O)N[C@@H](CC(C)C)C(=O)N[C@@H]([C@@H](C)O)C(=O)N(C)CC(=O)N(C)[C@@H](Cc2ccccc2)C(=O)N[C@@H](C)C(=O)N(C)[C@@H](Cc2ccccc2)C(=O)N(C)[C@@H](CC(C)C)C(=O)N(C)[C@@H]([C@@H](C)CC)C(=O)N(C)[C@@H](CC(C)C)C(=O)N[C@H](C(=O)N2CCCCC2)CC1=O [DP-544] ([NPrGly]LT[Sar][NMeF]A[NMeF][NMeL][NMeI][NMeL]D-Piperidide; lactam N-11)	42	45		
CCCN1CC(=O)N(C)[C@@H](Cc2ccccc2)C(=O)N[C@@H](C)C(=O)N(C)[C@@H](Cc2ccccc2)C(=O)N(C)[C@@H](CC(C)C)C(=O)N(C)[C@@H]([C@@H](C)CC)C(=O)N(C)[C@@H](CC(C)C)C(=O)N[C@H](C(=O)N2CCCCC2)CC(=O)N(C)CC(=O)N[C@@H](CC(C)C)C(=O)N[C@@H]([C@@H](C)O)C1=O [DP-545] ([Sar]LT[NPrGly][NMeF]A[NMeF][NMeL][NMeI][NMeL]D-Piperidide; lactam N-11)	40	36		
CC[C@H](C)[C@H]1C(=O)N(C)[C@@H](CC(C)C)C(=O)N[C@H](C(=O)N2CCCCC2)CC(=O)N(C)CC(=O)N[C@@H](CC(C)C)C(=O)N[C@@H]([C@@H](C)O)C(=O)N(C)CC(=O)N(CC)[C@@H](Cc2ccccc2)C(=O)N[C@@H](C)C(=O)N(C)[C@@H](Cc2ccccc2)C(=O)N(C)[C@@H](CC(C)C)C(=O)N1C [DP-546] ([Sar]LT[Sar][NEtPhe]A[NMeF][NMeL][NMeI][NMeL]D-Piperidide; lactam N-11)	41	34		
CC(C)C[C@@H]1NC(=O)[C@H](CC(C)C)NC(=O)[C@H](C)N(C)C(=O)C[C@@H](C(=O)N2CCCCC2)NC(=O)[C@H](C(C)C)N(C)C(=O)[C@H](CC(C)C)NC(=O)[C@H](Cc2ccccc2)NC(=O)[C@H]([C@@H](C)O)NC(=O)CN(C)C(=O)[C@H](CC(C)C)NC(=O)C(C)(C)NC1=O [DP-560] ([NMeA]LL[Aib]L[Sar]TFL[NMeV]D-Piperidide; lactam N-11)	26	28		
